Experimental data published in patent publication US20250313604A1, “PEPTIDE PHARMACEUTICALS FOR INSULIN RESISTANCE” (Mederis Diabetes LLC, priority 2014, published 2025).

Test system: db/db mice
Assay: In vivo assay in db/db mice (blood glucose, body weight, food consumption)

Compound | db/db mice - Mean Blood Glucose (250 nmole/kg s.c., 0 hr) [mg/dL] | db/db mice - Mean Blood Glucose (250 nmole/kg s.c., 10 hr) [mg/dL] | db/db mice - Mean Blood Glucose (250 nmole/kg s.c., 24 hr) [mg/dL] | db/db mice - Mean Blood Glucose (250 nmole/kg s.c., 48 hr) [mg/dL] | db/db mice - Mean Blood Glucose (300 nmole/kg s.c., 0 hr) [mg/dL] | db/db mice - Mean Blood Glucose (300 nmole/kg s.c., 10 hr) [mg/dL] | db/db mice - Mean Blood Glucose (300 nmole/kg s.c., 24 hr) [mg/dL] | db/db mice - Mean Blood Glucose (300 nmole/kg s.c., 48 hr) [mg/dL] | body weight changes against vehicle (high dose (300 nmoles/kg) s.c., Days 2 and 3)
CCCCCCCCO[C@@H]1O[C@H](C(=O)NCCCC[C@H](NC(=O)[C@@H](NC(=O)[C@H](Cc2ccccc2)NC(=O)[C@H](CCC(=O)O)NC(=O)[C@@H]2CCCCNC(=O)CC[C@H](NC(=O)[C@H](CC(=O)O)NC(=O)[C@H](CC(C)C)NC(=O)[C@H](Cc3ccc(O)cc3)NC(=O)[C@H](CCCCN)NC(=O)[C@H](CO)NC(=O)[C@H](Cc3ccc(O)cc3)NC(=O)[C@H](CC(=O)O)NC(=O)[C@H](CO)NC(=O)[C@@H](NC(=O)[C@H](Cc3ccccc3)NC(=O)[C@@H](NC(=O)CNC(=O)[C@H](CCC(N)=O)NC(=O)C(C)(C)NC(=O)[C@@H](N)Cc3c[nH]cn3)[C@@H](C)O)[C@@H](C)O)C(=O)N[C@@H](CCC(N)=O)C(=O)N[C@@H](C)C(=O)N[C@@H](C)C(=O)N2)[C@@H](C)CC)C(=O)N[C@@H](Cc2c[nH]c3ccccc23)C(=O)N[C@@H](CC(C)C)C(=O)N[C@@H](CC(C)C)C(=O)N[C@@H](CCC(N)=O)C(=O)N[C@H](C(N)=O)[C@@H](C)O)[C@@H](O)[C@H](O)[C@H]1O [EU-A992] | 405 | 104 | 112 | 130 |  |  |  |  | 
CCCCCCCCCCCCCCO[C@@H]1O[C@H](C(=O)NCCCC[C@H](NC(=O)[C@@H](NC(=O)[C@H](Cc2ccccc2)NC(=O)[C@H](CCC(=O)O)NC(=O)[C@@H]2CCCCNC(=O)CC[C@H](NC(=O)[C@H](CC(=O)O)NC(=O)[C@H](CC(C)C)NC(=O)[C@H](Cc3ccc(O)cc3)NC(=O)[C@H](CCCCN)NC(=O)[C@H](CO)NC(=O)[C@H](Cc3ccc(O)cc3)NC(=O)[C@H](CC(=O)O)NC(=O)[C@H](CO)NC(=O)[C@@H](NC(=O)[C@H](Cc3ccccc3)NC(=O)[C@@H](NC(=O)CNC(=O)[C@H](CCC(N)=O)NC(=O)C(C)(C)NC(=O)[C@@H](N)Cc3c[nH]cn3)[C@@H](C)O)[C@@H](C)O)C(=O)N[C@@H](CCC(N)=O)C(=O)N[C@@H](C)C(=O)N[C@@H](C)C(=O)N2)[C@@H](C)CC)C(=O)N[C@@H](Cc2c[nH]c3ccccc23)C(=O)N[C@@H](CC(C)C)C(=O)N[C@@H](CC(C)C)C(=O)N[C@@H](CCC(N)=O)C(=O)N[C@H](C(N)=O)[C@@H](C)O)[C@@H](O)[C@H](O)[C@H]1O [EU-A994, His1-Aib2-Gln3-Gly4-Thr5-Phe6-Thr7-Ser8-Asp9-Tyr10-Ser11-Lys12-Tyr13-Leu14-Asp15-Glu*16-Gln17-Ala18-Ala19-Lys*20-Glu21-Phe22-Ile23-Lys(N-omega(1-tetradecylbeta-D-glucuronyl))24-Trp25-Leu26-Leu27-Gln28-Thr29-NH2] |  |  |  |  | 554 | 242 | 209 | 385 | Significant body weight changes
